The values below come from PMC11530130, “Peripherally restricted PICK1 inhibitor mPD5 ameliorates pain behaviors in murine inflammatory and neuropathic pain models” (JCI Insight, 2024).

Each structure is given as a SMILES string. Where “and” joins values, the source holds several entries; their conditions need not be identical. Equal values may be shown once.

For one data set, the system named is naive mice. The data set is described as follows: Open field locomotion. It is filed as in vivo, mouse. Also noted: total locomotion in open field, individual mice: unit not given here. Particulars: for open field locomotion per 5min bin (Fig S8A): individual animals, listed as myr. Here is the method: Concentration 10 µmol/kg: Wild type mice were habituated to the experimental room for a minimum of 60 min before initiation of the experiment. Female and male mice were run on separate days. Mice were injected s.c. with 10 μmol/kg mPD5 or sterile PBS directly before being placed in open field boxes (40 cm x 40 cm x 80 cm) for 2.5 hours with up to four mice in boxes at any one time. A video camera placed above the open field recorded the animals’ behaviour and Ethovision XT 13 (Noldus) was used to track the distance travelled by the […]
Concentration 30 + 50 µmol/kg: Animals were habituated to the experimental room for a minimum of 60 min before initiation of the experiment. At initiation of experiment, the mice (all male) were injected subcutaneously (s.c.) with mPD5 (30 or 50 μmol/kg, pH adjusted to approximately 7 with 5 M NaOH) or 0.9 % saline (B.Braun, Germany) and left in their home cage for 60 min. After exactly one hour, the mice were placed in an open field (40 cm x 40 cm x 80 cm) for 60 min. A video camera placed above the open field recorded the animals’ […]
animal. The experiment was run in cohort with Figure 2B+C of (9)). […]

The subject of data set [1] is mice, CFA model of inflammatory pain. Nature of the data set: Single exposure place preference (sePP), CFA mice. Also noted: time spent in the paired compartment, individual mice: reference not given here. In kind it is in vivo, mouse. As to the method:
On days 6-8, the escape hole was moved
90 degrees, and all mice went through the second bout of training. On day nine, a second probe trial was performed testing the reversal learning of the mice.
Cancer induced bone pain was induced as described in the “Induction of cancer induced bone pain (CIBP model)"-section. For the assessment of limb use, all mice from one cage were placed in an empty transparent plastic box and left for ten min to habituate. One mouse at a time was moved by tunnel handling or scooping to an identical plastic box for the limb use test. […]
gait, 3 Insignificant limping, 2 Significant limping and shift in bodyweight towards the healthy limb 1 Significant limping and partial lack of use of ipsilateral leg 0 Total lack of use of ipsilateral leg. A score of 0 was used as a humane endpoint. Urine and faeces were cleaned from the plastic box with a dry paper towel between mice from the same cage, and a new plastic box was used for mice from different cages. The limb use test was video filmed for later […]
Assessment of static weight bearing. […]
Initial perception of the drugs was measured by single exposure place preference experiments performed in an elongated three compartment apparatus (67.5 cm x 24 cm) with a biased design of different floor textures and wall patterns and a neutral zone in the middle. […]

As for `CCCCCCCCCCCCCC(=O)N(CCOCCOCCC(=O)N[C@@H](Cc1c[nH]cn1)C(=O)N[C@@H](Cc1c[nH]c2ccccc12)C(=O)N[C@@H](CC(C)C)C(=O)N[C@@H](CCCCN)C(=O)N[C@H](C(=O)O)C(C)C)CCOCCOCCC(=O)N[C@@H](Cc1c[nH]cn1)C(=O)N[C@@H](Cc1c[nH]c2ccccc12)C(=O)N[C@@H](CC(C)C)C(=O)N[C@@H](CCCCN)C(=O)N[C@H](C(=O)O)C(C)C` [mPD5, myristoyl-NPEG4-(HWLKV)2], in the data set with naive mice (both sexes, s.c. 10 μmol/kg, 150 minutes), the “overall locomotion in open field” value was “overall locomotion was the same between groups”. Besides, the “open field locomotion per 5min bin (Fig S8A)” value in the data set with naive mice (myr 30 sc, time bin 5) is 9.792 and 20.2101 and 12.2703 and 19.016 and 30.6965 and 16.9458; in the data set with naive mice (myr 30 sc, time bin 10), 7.961 and 14.7148 and 7.884 and 18.3273; in the data set with naive mice (myr 30 sc, time bin 35), 5.715 and 10.7688 and 1.1088 and 12.4123 and 20.664 and 5.688; in the data set with naive mice (myr 30 sc, time bin 40) it was 11.1707 and 7.0291 and 1.7211 and 14.3893 and 18.0978 and 1.491; with naive mice (myr 30 sc, time bin 45), 1.78 and 8.087 and 5.349 and 15.4878 and 14.3776 and 5.135; with naive mice (myr 30 sc, time bin 50), 0.4107 and 5.0774 and 0.9705 and 10.9758 and 18.1434 and 3.971. Also, the “open field locomotion per 5min bin (Fig S8A)” value with naive mice (myr 30 sc, time bin 55) was 2.375 and 2.374 and 0.2143 and 12.0295 and 18.4127 and 1.9358; in the data set on naive mice (myr 30 sc, time bin 60), 5.982 and 3.075 and 0.4734 and 12.4806 and 21.7634 and 4.464; in the data set on naive mice (myr 50 sc, time bin 5), 18.0979 and 18.5029 and 7.528 and 18.9529 and 21.6506 and 14.4427 and 14.0357; in the data set with naive mice (myr 50 sc, time bin 10), 7.558 and 10.3984 and 2.952 and 12.1538 and 11.8366; in the data set on naive mice (myr 50 sc, time bin 35), 4.238 and 1.175 and 0.5656 and 5.236 and 7.164 and 13.3118 and 5.291; in the data set with naive mice (myr 50 sc, time bin 40), 1.639 and 8.588 and 1.093 and 4.076 and 7.194 and 14.7431 and 4.194. For the same compound, the “open field locomotion per 5min bin (Fig S8A)” value was 1.4137 and 3.876 and 1.161 and 4.905 and 5.068 and 11.8464 and 7.804 in the data set on naive mice (myr 50 sc, time bin 45); 0.9835 and 5.464 and 0.5467 and 1.258 and 0.6955 and 8.558 and 8.666 with naive mice (myr 50 sc, time bin 50); 1.533 and 3.196 and 1.532 and 1.249 and 4.7524 and 13.5785 and 1.184 in the data set with naive mice (myr 50 sc, time bin 55); 1.079 and 3.0668 and 0.6715 and 10.3299 and 7.512 and 5.91 and 5.742 in the data set with naive mice (myr 50 sc, time bin 60). In the data set with naive mice (s.c. 10 μmol/kg, 150 minutes), the “total locomotion in open field, individual mice” value was 177.609 and 107.816 and 106.645 and 245.588 and 278.41 and 220.659 and 185.74 and 353.332 and 277.158 and 380.649 and 207.835. In addition, in the data set with naive mice (s.c. 30 or 50 μmol/kg), the “locomotor activity in open field” value is “did not show any significant effect on locomotor activity”. In addition, in data set [1] (CFA animals, s.c. 30 μmol/kg in the gray (paired) compartment), the “time in the paired compartment compared with the PBS animals (sePP)” value was “significantly more time in the paired compartment”. For the same compound, in data set [1] (CFA mice conditioned with 30 μmol/kg), the “time spent in the paired compartment, individual mice” value was 1.043 and 0.9432 and 1.1179 and 0.8953 and 1.389 and 1.4664 and 0.991 and 1.199 and 1.802 and 0.8487 and 1.092 and 1.425.
